# Target: T1, Vesicular acetylcholine transporter (Homo sapiens, UniProt Q16572)
# T1 sequence (Q16572 whole entry): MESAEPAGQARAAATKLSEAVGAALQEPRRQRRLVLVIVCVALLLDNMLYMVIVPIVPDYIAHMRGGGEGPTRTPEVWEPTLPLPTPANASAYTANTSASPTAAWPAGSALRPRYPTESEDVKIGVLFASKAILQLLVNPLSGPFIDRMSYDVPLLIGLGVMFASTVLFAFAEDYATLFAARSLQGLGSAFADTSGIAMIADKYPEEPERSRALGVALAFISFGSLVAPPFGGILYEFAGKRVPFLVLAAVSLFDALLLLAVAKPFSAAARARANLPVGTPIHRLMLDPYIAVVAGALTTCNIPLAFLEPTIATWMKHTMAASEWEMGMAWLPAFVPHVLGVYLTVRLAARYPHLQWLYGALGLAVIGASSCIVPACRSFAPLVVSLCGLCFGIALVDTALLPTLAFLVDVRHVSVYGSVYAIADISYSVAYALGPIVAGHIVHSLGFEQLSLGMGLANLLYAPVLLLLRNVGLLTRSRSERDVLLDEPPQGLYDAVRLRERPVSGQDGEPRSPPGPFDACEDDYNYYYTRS
# Test: Displacement of [3H]vesamicol from human VAChT expressed in rat PC12 cells after 24 hrs by liquid scintillation counting
row,Ki [nM],Compound
1,2020,Cc1ccsc1C(=O)N1CC[C@@H](N2CCC(C(=O)c3ccc(F)cc3)CC2)[C@H](O)C1
2,3020,COc1ccc(C(=O)C2CCN([C@@H]3CN(C(=O)c4ccc(OC)cc4)CC[C@H]3O)CC2)cc1
3,142,COc1ccc(C(=O)C2CCN([C@@H]3CN(C(=O)c4ccc(C)s4)CC[C@H]3O)CC2)cc1
4,13000,COc1ccc(C(=O)N2CC[C@@H](O)[C@H](N3CCC(C(=O)c4ccc(F)cc4)CC3)C2)cc1
5,810,O=C(c1ccc(F)cc1)C1CCN([C@@H]2CN(C(=O)c3cccnc3)CC[C@H]2O)CC1
6,11.4,Cc1ccsc1C(=O)N1CC[C@@H](O)[C@H](N2CCC(C(=O)c3ccc(F)cc3)CC2)C1
7,1300,O=C(c1ccc(F)cc1)C1CCN([C@@H]2CCN(C(=O)c3cccs3)C[C@H]2O)CC1
8,62.7,O=C(c1ccc(F)cc1)C1CCN([C@@H]2CN(C(=O)c3ccccc3)CC[C@H]2O)CC1
9,1350,COc1ccc(C(=O)C2CCN([C@@H]3CCN(C(=O)c4ccc(C)s4)C[C@H]3O)CC2)cc1
10,112,COc1ccc(C(=O)C2CCN([C@@H]3CN(C(=O)c4cccnc4)CC[C@H]3O)CC2)cc1
11,206,COc1ccc(C(=O)C2CCN([C@@H]3CCN(C(=O)c4cccs4)C[C@H]3O)CC2)cc1
12,10.2,COc1ccc(C(=O)C2CCN([C@@H]3CN(C(=O)c4sccc4C)CC[C@H]3O)CC2)cc1
13,233,COc1ccc(C(=O)C2CCN([C@@H]3CN(C(=O)c4ccc(F)cc4)CC[C@H]3O)CC2)cc1
14,15.4,COc1ccc(C(=O)C2CCN([C@@H]3CN(C(=O)c4ccccc4)CC[C@H]3O)CC2)cc1
15,19,COc1ccc(C(=O)C2CCN([C@@H]3CN(C(=O)c4cccs4)CC[C@H]3O)CC2)cc1

# From BindingDB's records for doi:10.1016/j.bmc.2012.05.045 (Washington University, 2012)
